Experimental data from PubChem BioAssay AID1918995 (Molecular Pharmacology Branch, DTP, NCI, 2023).

Tested on: 324938-238-R-J1-PDC complex spheroid growth, % test/control
Experiment: Anticancer human tumor 324938-238-R-J1-PDC patient-derived bladder carcinoma cell line growth inhibition [AhR]
Conditions: for IC50: curve of first compound; for viability, T/C: stronger effect = lower value
Outline: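 Spheroids combined tumor cells with HUVEC endothelial cells and human MSCs as stroma. AhR antagonists were paired with standard or investigational drugs, each dosed in half-log steps down from near clinical Cmax, or from 10 microM where Cmax was unknown.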

[1] = second compound 0.1 µM, first compound 0.0316 µM
[2] = second compound 0.1 µM, first compound 0.1 µM
[3] = second compound 0.1 µM, first compound 0.316 µM
[4] = second compound 0.1 µM, first compound 1 µM
[5] = second compound 0.1 µM, first compound 3.16 µM
[6] = second compound 0.1 µM, first compound 10 µM
[7] = second compound 0.316 µM, first compound 0.0316 µM
[8] = second compound 0.316 µM, first compound 0.1 µM
[9] = second compound 0.316 µM, first compound 0.316 µM
[10] = second compound 0.316 µM, first compound 1 µM
[11] = second compound 0.316 µM, first compound 3.16 µM
[12] = second compound 0.316 µM, first compound 10 µM
[13] = second compound 1 µM, first compound 0.0316 µM
[14] = second compound 1 µM, first compound 0.1 µM
[15] = second compound 1 µM, first compound 0.316 µM
[16] = second compound 1 µM, first compound 1 µM
[17] = second compound 1 µM, first compound 3.16 µM
[18] = second compound 1 µM, first compound 10 µM
[19] = second compound 3.16 µM, first compound 0.0316 µM
[20] = second compound 3.16 µM, first compound 0.1 µM
[21] = second compound 3.16 µM, first compound 0.316 µM
[22] = second compound 3.16 µM, first compound 1 µM
[23] = second compound 3.16 µM, first compound 3.16 µM
[24] = second compound 3.16 µM, first compound 10 µM
[25] = second compound 10 µM, first compound 0.0316 µM
[26] = second compound 10 µM, first compound 0.1 µM
[27] = second compound 10 µM, first compound 0.316 µM
[28] = second compound 10 µM, first compound 1 µM
[29] = second compound 10 µM, first compound 3.16 µM
[30] = second compound 10 µM, first compound 10 µM
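Further: spheroids exposed to agents for seven days before viability read.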

## CC(C)CC(NC(=O)C(Cc1ccccc1)NC(=O)c1cnccn1)B(O)O (stereo not given) + Cc1ccccc1N=Nc1ccc(NC(=O)c2ccnn2C)c(C)c1
Second compound 0.1 µM
  IC50: 5.19 nM
Second compound 0.316 µM
  IC50: 4.9 nM
Second compound 1 µM
  IC50: 4.83 nM
Second compound 3.16 µM
  IC50: 4.38 nM
Second compound 10 µM
  IC50: 4.51 nM
Second compound 0.1 µM, first compound 0.000949 µM
  viability, T/C: 97.5%
Second compound 0.1 µM, first compound 0.003 µM
  viability, T/C: 94.3%
Second compound 0.1 µM, first compound 0.00949 µM
  viability, T/C: 1.29%
Second compound 0.1 µM, first compound 0.03 µM
  viability, T/C: 0.07%
Second compound 0.1 µM, first compound 0.0949 µM
  viability, T/C: 0.09%
Second compound 0.1 µM, first compound 0.3 µM
  viability, T/C: 0.27%
Second compound 0.316 µM, first compound 0.000949 µM
  viability, T/C: 92.3%
Second compound 0.316 µM, first compound 0.003 µM
  viability, T/C: 84.6%
Second compound 0.316 µM, first compound 0.00949 µM
  viability, T/C: 3.23%
Second compound 0.316 µM, first compound 0.03 µM
  viability, T/C: 0.04%
Second compound 0.316 µM, first compound 0.0949 µM
  viability, T/C: 0.05%
Second compound 0.316 µM, first compound 0.3 µM
  viability, T/C: 0.19%
Second compound 1 µM, first compound 0.000949 µM
  viability, T/C: 95.1%
Second compound 1 µM, first compound 0.003 µM
  viability, T/C: 84.1%
Second compound 1 µM, first compound 0.00949 µM
  viability, T/C: 1.49%
Second compound 1 µM, first compound 0.03 µM
  viability, T/C: 0.04%
Second compound 1 µM, first compound 0.0949 µM
  viability, T/C: 0.07%
Second compound 1 µM, first compound 0.3 µM
  viability, T/C: 0.17%
Second compound 3.16 µM, first compound 0.000949 µM
  viability, T/C: 84.2%
Second compound 3.16 µM, first compound 0.003 µM
  viability, T/C: 73.4%
Second compound 3.16 µM, first compound 0.00949 µM
  viability, T/C: 2.32%
Second compound 3.16 µM, first compound 0.03 µM
  viability, T/C: 0.06%
Second compound 3.16 µM, first compound 0.0949 µM
  viability, T/C: 0.06%
Second compound 3.16 µM, first compound 0.3 µM
  viability, T/C: 0.19%
Second compound 10 µM, first compound 0.000949 µM
  viability, T/C: 85.9%
Second compound 10 µM, first compound 0.003 µM
  viability, T/C: 76.1%
Second compound 10 µM, first compound 0.00949 µM
  viability, T/C: 2.47%
Second compound 10 µM, first compound 0.03 µM
  viability, T/C: 0.24%
Second compound 10 µM, first compound 0.0949 µM
  viability, T/C: 0.36%
Second compound 10 µM, first compound 0.3 µM
  viability, T/C: 0.32%

## COc1cc(Nc2ncc3c(n2)-c2ccc(Cl)cc2C(c2c(F)cccc2OC)=NC3)ccc1C(=O)O + Cc1ccccc1N=Nc1ccc(NC(=O)c2ccnn2C)c(C)c1
Second compound 0.1 µM
  IC50: 139 nM
Second compound 0.316 µM
  IC50: 101 nM
Second compound 1 µM
  IC50: 85.5 nM
Second compound 3.16 µM
  IC50: 66.2 nM
Second compound 10 µM
  IC50: 71 nM
[1]
  viability, T/C: 72.5%
[2]
  viability, T/C: 55.7%
[3]
  viability, T/C: 36.1%
[4]
  viability, T/C: 31.9%
[5]
  viability, T/C: 31.6%
[6]
  viability, T/C: 39.4%
[7]
  viability, T/C: 66.7%
[8]
  viability, T/C: 50.1%
[9]
  viability, T/C: 32.8%
[10]
  viability, T/C: 32.5%
[11]
  viability, T/C: 33.8%
[12]
  viability, T/C: 34.3%
[13]
  viability, T/C: 65.1%
[14]
  viability, T/C: 47.6%
[15]
  viability, T/C: 31.6%
[16]
  viability, T/C: 31.2%
[17]
  viability, T/C: 30.4%
[18]
  viability, T/C: 34.8%
[19]
  viability, T/C: 57.4%
[20]
  viability, T/C: 45.9%
[21]
  viability, T/C: 27.5%
[22]
  viability, T/C: 28.7%
[23]
  viability, T/C: 27.5%
[24]
  viability, T/C: 30.1%
[25]
  viability, T/C: 60.4%
[26]
  viability, T/C: 49.1%
[27]
  viability, T/C: 34.8%
[28]
  viability, T/C: 36.9%
[29]
  viability, T/C: 37%
[30]
  viability, T/C: 41.7%

## NS(=O)(=O)OCC1CC(n2ccc3c(NC4CCc5ccccc54)ncnc32)CC1O (stereo not given) + Cc1ccccc1N=Nc1ccc(NC(=O)c2ccnn2C)c(C)c1
Second compound 0.1 µM
  IC50: 1360 nM
Second compound 0.316 µM
  IC50: 1070 nM
Second compound 1 µM
  IC50: 1040 nM
Second compound 3.16 µM
  IC50: 875 nM
Second compound 10 µM
  IC50: 929 nM
[1]
  viability, T/C: 85.5%
[2]
  viability, T/C: 103%
[3]
  viability, T/C: 79.7%
[4]
  viability, T/C: 59%
[5]
  viability, T/C: 28.9%
[6]
  viability, T/C: 27.7%
[7]
  viability, T/C: 93.2%
[8]
  viability, T/C: 88.8%
[9]
  viability, T/C: 76.1%
[10]
  viability, T/C: 55.4%
[11]
  viability, T/C: 23.4%
[12]
  viability, T/C: 30.1%
[13]
  viability, T/C: 88%
[14]
  viability, T/C: 83.4%
[15]
  viability, T/C: 82.7%
[16]
  viability, T/C: 50.9%
[17]
  viability, T/C: 26.7%
[18]
  viability, T/C: 35.2%
[19]
  viability, T/C: 79.8%
[20]
  viability, T/C: 72.9%
[21]
  viability, T/C: 73.7%
[22]
  viability, T/C: 46.7%
[23]
  viability, T/C: 22.9%
[24]
  viability, T/C: 32%
[25]
  viability, T/C: 72.7%
[26]
  viability, T/C: 81%
[27]
  viability, T/C: 74.1%
[28]
  viability, T/C: 48.4%
[29]
  viability, T/C: 35.5%
[30]
  viability, T/C: 35.8%

## O=C(C=Cc1cccc(S(=O)(=O)Nc2ccccc2)c1)NO + Cc1ccccc1N=Nc1ccc(NC(=O)c2ccnn2C)c(C)c1
Second compound 0.1 µM
  IC50: 3110 nM
Second compound 0.316 µM
  IC50: 2790 nM
Second compound 1 µM
  IC50: 3060 nM
Second compound 3.16 µM
  IC50: 2570 nM
Second compound 10 µM
  IC50: 2790 nM
[1]
  viability, T/C: 103%
[2]
  viability, T/C: 91.5%
[3]
  viability, T/C: 98.4%
[4]
  viability, T/C: 65.5%
[5]
  viability, T/C: 53.8%
[6]
  viability, T/C: 33.4%
[7]
  viability, T/C: 98%
[8]
  viability, T/C: 102%
[9]
  viability, T/C: 81.1%
[10]
  viability, T/C: 69%
[11]
  viability, T/C: 48.1%
[12]
  viability, T/C: 32.5%
[13]
  viability, T/C: 93.3%
[14]
  viability, T/C: 99.1%
[15]
  viability, T/C: 84.4%
[16]
  viability, T/C: 75.8%
[17]
  viability, T/C: 48.2%
[18]
  viability, T/C: 33.2%
[19]
  viability, T/C: 84.1%
[20]
  viability, T/C: 84.6%
[21]
  viability, T/C: 83.5%
[22]
  viability, T/C: 66.3%
[23]
  viability, T/C: 47.2%
[24]
  viability, T/C: 38.6%
[25]
  viability, T/C: 78.4%
[26]
  viability, T/C: 85.2%
[27]
  viability, T/C: 71.3%
[28]
  viability, T/C: 62.1%
[29]
  viability, T/C: 49.6%
[30]
  viability, T/C: 36.3%
